According to patent publication US6620828B2, “Thiazole compounds and pharmaceutical compositions for inhibiting protein kinases and methods for their use” (Agouron Pharmaceuticals, Inc., priority 1999, dated 2003):
Where two headings read alike, the source gives them in different places. One block for each compound: values may come before it.

Key:
[1] = biological target: T1, phosphorylated VEGF-R2Δ50 (Homo sapiens, UniProt P35968, DEL940-989/E990V); assay: VEGF-R2 ELISA assay; type: biochemical; settings: for Ki: * determined with ELISA assay, read-out: FLVK-P Ki; for FLVK-P % inhibition @ 300*: at 300 (head μM)
T1 construct: VEGF-R2Δ50 contains residues 806-939 and 990-1171; made in house; host or cells: baculovirus/insect cells
T1 sequence (P35968 with tags, fused parts or gaps DEL940-989/E990V limits assumed): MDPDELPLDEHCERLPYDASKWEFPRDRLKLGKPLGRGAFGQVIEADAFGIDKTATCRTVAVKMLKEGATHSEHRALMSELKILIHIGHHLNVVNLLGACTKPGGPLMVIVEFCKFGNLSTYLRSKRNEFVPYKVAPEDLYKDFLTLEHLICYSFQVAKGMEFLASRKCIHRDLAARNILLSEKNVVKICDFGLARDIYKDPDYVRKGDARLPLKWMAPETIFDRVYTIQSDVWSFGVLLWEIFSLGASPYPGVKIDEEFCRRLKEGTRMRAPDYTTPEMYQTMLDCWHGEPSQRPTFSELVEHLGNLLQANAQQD
Description: VEGF-R2 Construct for Assay: This construct determines the ability of a test compound to inhibit tyrosine kinase activity. A construct (VEGF-R2Δ50) of the cytosolic domain of human vascular endothelial growth factor receptor 2 (VEGF-R2) lacking the 50 central residues of the 68 residues of the kinase insert domain was expressed in a baculovirus/insect cell system. Of the 1356 residues of full-length VEGF-R2, VEGF-R2Δ50 contains residues 806-939 and 990-1171, and also one point mutation (E990V) within the kinase insert domain relative to wild-type VEGF-R2. Autophosphorylation of the purified construct was performed by incubation of the enzyme at a concentration of 4 μM in the presence of 3 mM ATP and 40 mM MgCl2 in 100 mM Hepes, pH 7.5, containing 5% glycerol and 5 mM DTT, at 4° C. for 2 h. […] See Parast et al., Biochemistry, 37, 16788-16801 (1998).
Formation of phosphogastrin was monitored using biotinylated gastrin peptide (1-17) as substrate. Biotinylated phosphogastrin was immobilized using streptavidin coated 96-well microtiter plates followed by detection using anti-phosphotyrosine-antibody conjugated to horseradish peroxidase. The activity of horseradish peroxidase was monitored using 2,2′-azino-di-[3-ethylbenzathiazoline sulfonate(6)]diammonium salt (ABTS). Typical assay solutions contained: 2 μM biotinylated gastrin peptide; 5 mM DTT; 20 μM ATP; 26 mM MgCl2; and 2 mM MnCl2 in 200 mM Hepes, pH 7.5. The assay was initiated with 0.8 nM of phosphorylated VEGF-R2Δ50. Horseradish peroxidase activity was assayed using ABTS, 10 mM. The horseradish peroxidase reaction was quenched by addition of acid (H2SO4), followed by absorbance reading at 405 nm. Ki values were determined by measuring enzyme activity in the presence of varying concentrations of test compounds. The data were analyzed using Enzyme Kinetic and Kaleidagraph software.

[2] = biological target: T2, CDK4/Cyclin D3 complex (Homo sapiens, UniProt P11802); assay: CDK4/Cyclin D assay; type: biochemical; settings: Table 2; for inhibition at 100 µM: at 100 (printed 100 or 100 μM)
T2 construct: made in house; host or cells: insect cells co-infected with baculovirus vectors
T2 sequence (P11802 whole entry): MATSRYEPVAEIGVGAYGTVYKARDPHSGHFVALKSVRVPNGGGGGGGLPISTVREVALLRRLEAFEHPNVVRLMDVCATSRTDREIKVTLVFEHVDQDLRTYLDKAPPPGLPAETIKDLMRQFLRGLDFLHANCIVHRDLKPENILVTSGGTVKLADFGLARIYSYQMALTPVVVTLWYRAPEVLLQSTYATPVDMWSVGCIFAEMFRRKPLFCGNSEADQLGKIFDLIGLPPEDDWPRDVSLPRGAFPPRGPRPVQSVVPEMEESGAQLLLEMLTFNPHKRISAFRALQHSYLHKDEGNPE
T2 sequence (P30281 whole entry partner): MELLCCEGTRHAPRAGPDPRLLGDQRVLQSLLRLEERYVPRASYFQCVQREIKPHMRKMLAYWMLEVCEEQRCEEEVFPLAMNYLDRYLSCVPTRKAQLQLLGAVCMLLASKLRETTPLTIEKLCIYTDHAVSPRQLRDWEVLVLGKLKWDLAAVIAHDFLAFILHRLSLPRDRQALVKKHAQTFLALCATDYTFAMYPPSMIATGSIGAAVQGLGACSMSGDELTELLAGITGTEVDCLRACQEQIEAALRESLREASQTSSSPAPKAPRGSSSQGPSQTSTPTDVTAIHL
In short: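 Insect-cell-expressed CDK4/cyclin D3 (50 nM) phosphorylating His-tagged Rb fragment (residues 386-928) with 25 μM [^32P]ATP in HEPES pH 7.4, MgCl2, 2% DMSO; 20 min at 30 °C, EDTA stop. Filter-captured 32P by phosphorimager; apparent Ki from competitive or tight-binding inhibition fits.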

[3] = biological target: CDK2/Cyclin A complex (Homo sapiens, UniProt P24941); assay: CDK2/Cyclin A assay; type: biochemical; settings: Table 2
In short: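 Radiometric assay: 150 nM CDK2/cyclin A (insect-cell CDK2, truncated cyclin A) phosphorylates His-tagged Rb fragment (residues 386-928) with 25 μM ATP plus [32P]ATP, pH 7.4 HEPES, 2% DMSO, 30 °C for 20 min. Filter-captured product counted by phosphorimager; apparent Ki from competitive or tight-binding inhibition fits.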

[4] = biological target: T3, CHK1 (Homo sapiens, UniProt O14757); assay: CHK1 high-throughput screening; type: biochemical; settings: read-out: % inhibition @ 20 μM, Table 4, repeated entries per example
T3 sequence (O14757 1-476): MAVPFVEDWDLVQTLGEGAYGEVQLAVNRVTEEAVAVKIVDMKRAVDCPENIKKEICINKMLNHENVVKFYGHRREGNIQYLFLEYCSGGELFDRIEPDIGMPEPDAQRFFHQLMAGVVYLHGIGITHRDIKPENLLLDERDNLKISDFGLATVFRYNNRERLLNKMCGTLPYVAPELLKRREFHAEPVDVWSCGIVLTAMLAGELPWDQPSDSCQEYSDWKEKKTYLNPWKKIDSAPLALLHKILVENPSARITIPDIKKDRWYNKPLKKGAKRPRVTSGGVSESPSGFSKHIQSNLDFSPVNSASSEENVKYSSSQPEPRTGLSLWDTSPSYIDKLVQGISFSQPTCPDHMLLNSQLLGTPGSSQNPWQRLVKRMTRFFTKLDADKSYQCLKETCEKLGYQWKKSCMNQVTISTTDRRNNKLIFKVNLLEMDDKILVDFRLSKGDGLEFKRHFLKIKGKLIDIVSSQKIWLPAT

[5] = test system: lung cancer cells (line MV522); assay: Cancer cell proliferation (MV522) assay; type: cell-based; settings: MV522, Table 1
[6] = test system: human umbilical vein endothelial cells (HUVEC); assay: HUVEC proliferation assay; type: cell-based; settings: Homo sapiens, HUVEC, Table 1
In short: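 Exponentially growing HUVEC were serum-starved 24 h (F12K + 1% FBS), pre-treated 1 h with compound (0.1% DMSO final), then stimulated with 6 ng/ml VEGF. Proliferation was read 72 h later by MTT reduction (A595). IC50 came from seven 0.5-log concentrations in triplicate; screens gave % inhibition relative to VEGF-only and starved wells.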

[7] = biological target: T4, unphosphorylated VEGF-R2Δ50 (FLVK) (Homo sapiens, UniProt P35968, DEL940-989/E990V); assay: VEGF-R2 coupled spectrophotometric assay, unphosphorylated enzyme (FLVK); type: biochemical; settings: Table 1
T4 construct: VEGF-R2Δ50 contains residues 806-939 and 990-1171; made in house; host or cells: baculovirus/insect cells
T4 sequence (P35968 with tags, fused parts or gaps DEL940-989/E990V limits assumed): as the sequence (P35968 with tags, fused parts or gaps DEL940-989/E990V limits assumed) above
In short: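 Unphosphorylated VEGF-R2Δ50 (5 to 40 nM) with 20 mM poly(E4Y1), 3 mM ATP, 60 mM MgCl2, 2 mM MnCl2 in 200 mM Hepes pH 7.5. ADP production coupled via PK/LDH to NADH oxidation, read at 340 nm. Ki from activity at varying compound concentrations.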

[8] = biological target: T5, FGF-R1 (Homo sapiens, UniProt P11362, C488A/C584S/L457V); assay: FGF-R spectrophotometric assay; type: biochemical; settings: Table 2
T5 construct: starting from the endogenous methionine residue 456 to glutamate 766; made in house; host or cells: baculovirus vector expression system
T5 sequence (P11362 456-766 L457V/C488A/C584S): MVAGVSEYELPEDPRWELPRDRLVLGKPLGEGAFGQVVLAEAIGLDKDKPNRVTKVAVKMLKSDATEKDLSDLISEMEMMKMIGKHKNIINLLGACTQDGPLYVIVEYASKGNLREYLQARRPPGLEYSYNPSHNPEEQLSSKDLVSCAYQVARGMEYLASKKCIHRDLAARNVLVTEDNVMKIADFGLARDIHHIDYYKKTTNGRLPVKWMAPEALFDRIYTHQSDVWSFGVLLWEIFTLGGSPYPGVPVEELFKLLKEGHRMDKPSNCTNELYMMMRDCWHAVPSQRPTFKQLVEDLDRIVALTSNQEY
Method: FGF-R1 Construct for Assay: The intracellular kinase domain of human FGF-R1 was expressed using the baculovirus vector expression system starting from the endogenous methionine residue 456 to glutamate 766, according to the residue numbering system of Mohammadi et al., Mol. Cell. Biol., 16, 977-989 (1996). In addition, the construct also has the following 3 amino acid substitutions: L457V, C488A, and C584S.
The spectrophotometric assay was carried out as described above for VEGF-R2, except for the following changes in concentration: FGF-R=50 nM, ATP=2 mM, and poly(E4Y1)=15 mM.

[9] = biological target: T6, phosphorylated VEGF-R2Δ50 (FLVK-P) (Homo sapiens, UniProt P35968, DEL940-989/E990V); assay: VEGF-R2 coupled spectrophotometric (FLVK-P) assay; type: biochemical; settings: Table 2; spectrophotometric assay
T6 construct: VEGF-R2Δ50 contains residues 806-939 and 990-1171; made in house; host or cells: baculovirus/insect cells
T6 sequence (P35968 with tags, fused parts or gaps DEL940-989/E990V limits assumed): as the sequence (P35968 with tags, fused parts or gaps DEL940-989/E990V limits assumed) above
In short: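 Baculovirus-expressed human VEGF-R2Δ50 (residues 806-939/990-1171, E990V) was autophosphorylated with 3 mM ATP, 40 mM MgCl2 for 2 h at 4° C. ADP formation was coupled via PK/LDH to NADH oxidation, read at 340 nm, with 5.1 mM poly(E4Y1), 1 mM ATP, 25 mM MgCl2, Hepes pH 7.5. Ki came from activity across compound concentrations.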

- Ki ([1]; Table 1): 0.032 µM
- IC50 [5]: > 10 µM
- Ki [7]: 0.00062 µM
Compound: COc1cc(Nc2nc(N)c(-c3nc(-c4cccc(NC(=O)c5ncc(C)s5)c4)no3)s2)cc(OC)c1OC [D(51)]
- IC50 [6]: 0.04 µM

- Ki ([1]; Table 2): 57 µM
- Ki [2]: 50 µM
Compound: COc1cc(Nc2nc(N)c(-c3ccccn3)s2)cc(OC)c1OC [G(1), 5-Pyridin-2-yl-N^2-(3,4,5-trimethoxy-phenyl)-thiazole-2,4-diamine]

- FLVK-P % inhibition @ 300* ([1]; Table 2, ELISA assay): 42% @
- Ki [2]: 11.4 µM
Compound: COc1ccc(Nc2nc(N)c(-c3ccccn3)s2)cc1OC [G(4), N^2-(3,4-Dimethoxy-phenyl)-5-pyridin-2-yl-thiazole-2,4-diamine]

- FLVK-P % inhibition @ 300* ([1]; Table 2, ELISA assay): 40% @
- inhibition at 100 µM [2]: < 0%
Compound: COc1cc(Nc2nc(N)c(C3=NC(CC(C)C)CO3)s2)cc(OC)c1OC (centres unmarked) [I(3), S-5-(4-Isobutyl-4,5-dihydro-oxazol-2-yl)-N^2-(3,4,5-trimethoxyl-phenyl)-thiazole-2,4-diamine]

- Ki [8]: 22 µM
- Ki [9]: 0.1 µM
Compound: COc1cc(Nc2nc(N)c(C3=NC(c4ccccc4)CO3)s2)cc(OC)c1OC (centres unmarked) [I(6), S-5-(4-Phenyl-4,5-dihydro-oxazol-2-yl)-N^2-(3,4,5-trimethoxyl-phenyl)-thiazole-2,4-diamine]

- Ki ([1]; Table 2): 64 µM
- inhibition at 100 µM [2]: < 0%
Compound: COc1cc(Nc2nc(N)c(-c3nn[nH]n3)s2)cc(OC)c1OC [J(1), 5-(2H-Tetrazol-5-yl-)-N-(3,4,5-trimethoxyl)-thiazole-2,4-diamine]

- Ki ([1]; Table 2): 53 µM
- inhibition at 100 µM [2]: 29%
Compound: CN(C)c1ccc(Nc2nc(N)c(-c3nn[nH]n3)s2)cc1 [J(2), N-(4-Dimethylamino-phenyl)-5-(2H-tetrazol-5-yl)-thiazole-2,4-diamine]

Continued, compound first:

Compound: Nc1nc(Nc2ccc(S(N)(=O)=O)cc2)sc1-c1nc(-c2ccc(O)cc2)cs1 [A(8), 4-[4′-Amino-4-(4-hydroxy-phenyl)-[2,5′]bithiazolyl-2′-ylamino]-benzenesulfonamide]
- Ki ([1]; Table 2): 0.058 µM
- Ki [2]: 0.42 µM
- Ki [3]: 0.8 µM

Compound: Nc1nc(Nc2ccc(S(N)(=O)=O)cc2)sc1-c1nc(-c2cccc(C(=O)O)c2)cs1 [A(21), 3-[4′-Amino-2′-(4-sulfamoyl-phenylamino)-[2,5′]bithiazolyl-4-yl]-benzoic acid]
- inhibition at 20 µM [4]: -7.2%
- Ki ([1]; Table 2): 8.8 µM
- Ki [2]: 45 µM
- Ki [3]: 8.21 µM

Compound: Cc1ccc(-c2csc(-c3sc(Nc4ccc(S(N)(=O)=O)cc4)nc3N)n2)cc1 [A(24), 4-(4′-Amino-4-p-tolyl-[2,5′]bithiazolyl-2′-ylamino)-benzenesulfonamide]
- inhibition at 20 µM [4]: 13.3%
- Ki ([1]; Table 2): 5.5 µM
- CDK4 % inhibition @ 10 ([2]; at 10 (head μM)): 64% @
- Ki [3]: 3.4 µM

Compound: Nc1nc(Nc2ccc(S(N)(=O)=O)cc2)sc1-c1nc(-c2cc(O)cc(OCc3ccccc3)c2)cs1 [A(61), 4-[4′-Amino-4-(3-benzyloxy-5-hydroxy-phenyl)-[2,5]bithiazolyl-2′-ylamino]-benzenesulfonamide]
- Ki [3]: 2.7 µM
- melting point: 185 to 187 °C (dec.)

Compound: COc1cc(Nc2nc(N)c(-c3nc(-c4cccc(NC(=O)Oc5ccccc5)c4)cs3)s2)cc(OC)c1OC [D(4), {3-[4′-Amino-2′-(3,4,5-trimethoxy-phenylamino)-[2,5′]bithiazolyl-4-yl]-phenyl}-carbamic acid phenyl ester]
- Ki ([1]; Table 1): 0.0076 µM
- IC50 [5]: > 10 µM
- IC50 [6]: 0.24 µM

Compound: COc1cc(Nc2nc(N)c(-c3nc(-c4cccc(NC(=O)c5cc6ccccc6o5)c4)cs3)s2)cc(OC)c1OC [D(21), Benzofuran-2-carboxylic acid {3-[4′-amino-2′-(3,4,5-trimethoxy-phenylamino)-[2,5′]bithiazolyl-4-yl]-phenyl}-amide]
- Ki ([1]; Table 1): 0.06 µM
- IC50 [5]: > 10 µM
- IC50 [6]: 0.2 µM

Compound: Nc1nc(Nc2ccccc2)sc1-c1ccccn1 [G(2), N^2-Phenyl-5-pyridin-2-yl-thiazole-2,4-diamine]
- FLVK-P % inhibition @ 100* ([1]; Table 2, ELISA assay, at 100 (head μM)): 18% @
- Ki [2]: 5.7 µM

Compound: Nc1nc(Nc2ccc3c(c2)OCCO3)sc1-c1ccccn1 [G(3), N^2-(2,3-Dihydro-benzo[1,4]dioxin-6-yl)-5-pyridin-2-yl-thiazole-2,4-diamine]
- FLVK-P % inhibition @ 20* ([1]; Table 2, ELISA assay, at 20 (head μM)): 13% @
- Ki [2]: 6.2 µM

Compound: Nc1nc(Nc2ccc(S(N)(=O)=O)cc2)sc1-c1nc(O)cs1 [H(1), 4-(4′-Amino-4-hydroxy-[2,5′]bithiazolyl-2′-ylamino)-benzenesulfonamide]
- Ki ([1]; Table 2): 3.6 µM
- Ki [2]: 3.8 µM
- Ki [3]: 0.65 µM

Compound: CN(C)c1ccc(Nc2nc(N)c(-c3nc(O)c(-c4ccccc4O)s3)s2)cc1 [H(3), 4′-Amino-2′-(4-dimethylamino-phenylamino)-5-(2-hydroxy-phenyl)-[2,5′]bithiazoly-4-ol]
- Ki ([1]; Table 2): 6.1 µM
- Ki [2]: 1.7 µM
- Ki [3]: 8.8 µM

Compound: Nc1nc(Nc2ccc(S(N)(=O)=O)cc2)sc1C1=NC(c2ccccc2)CO1 (centres unmarked) [I(5), S-4-[4-Amino-5-(4-phenyl-4,5-dihydro-oxazol-2-yl)-thiazol-2-ylamino]-benzenesulfonamide]
- Ki ([1]; Table 2): 0.77 µM
- inhibition at 100 µM [2]: 47%
